Source: patent US6426369B1, “Oxethazaine as antimicrobial agent” (Eisai Co., Ltd., priority 1997, dated 2002)

Tested on: H. pylori
Assay: Antimicrobial activity test 6: oxethazaine in combination with an antibiotic (AMPC, CAM, RXM), checker board method
Type: cell-based, Helicobacter pylori
Parameters: key to growth of H. pylori: “−” indicates the inhibited growth of H. pylori (presence of antimicrobial activity); “+” indicates the growth of H. pylori (absence of antimicrobial activity)
From the text: The effect of combined use with amoxicillin (AMPC), clarithromycin (CAM) or roxithromycin (RXM) was examined in the same manner as in antimicrobial activity test 1, using the checker board method.

[1] = combined use with oxethazaine, out of 15 strains (AMPC), 21 strains (CAM), 22 strains (RXM)

CC[C@H]1OC(=O)[C@H](C)[C@@H](O[C@H]2C[C@@](C)(OC)[C@@H](O)[C@H](C)O2)[C@H](C)[C@@H](O[C@@H]2O[C@H](C)C[C@H](N(C)C)[C@H]2O)[C@](C)(OC)C[C@@H](C)C(=O)[C@H](C)[C@@H](O)[C@]1(C)O [clarithromycin]
growth of H. pylori (89-355, oxethazaine 0 + CAM 0.006 μg/ml): + | growth of H. pylori (89-355, oxethazaine 0 + CAM 0.012 μg/ml): + | growth of H. pylori (89-355, oxethazaine 0 + CAM 0.024 μg/ml): + | growth of H. pylori (89-355, oxethazaine 0 + CAM 0.05 μg/ml): + | growth of H. pylori (89-355, oxethazaine 0 + CAM 0.1 μg/ml): − | growth of H. pylori (89-355, oxethazaine 0 + CAM 0.2 μg/ml): − | growth of H. pylori (89-355, oxethazaine 0 + CAM 0.4 μg/ml): − | growth of H. pylori (89-355, oxethazaine 0 + CAM 0.8 μg/ml): − | growth of H. pylori (89-355, oxethazaine 0 + CAM 1.56 μg/ml): − | growth of H. pylori (89-355, oxethazaine 0 + CAM 3.13 μg/ml): − | growth of H. pylori (89-355, oxethazaine 0 + CAM 6.25 μg/ml): − | growth of H. pylori (89-355, oxethazaine 0 + CAM 12.5 μg/ml): − | growth of H. pylori (89-355, oxethazaine 0 + CAM 25 μg/ml): − | growth of H. pylori (89-355, oxethazaine 0 + CAM 50 μg/ml): − | growth of H. pylori (89-355, oxethazaine 0 + CAM 100 μg/ml): − | growth of H. pylori (89-357, oxethazaine 0 + CAM 0.006 μg/ml): + | growth of H. pylori (89-357, oxethazaine 0 + CAM 0.012 μg/ml): + | growth of H. pylori (89-357, oxethazaine 0 + CAM 0.024 μg/ml): + | growth of H. pylori (89-357, oxethazaine 0 + CAM 0.05 μg/ml): − | growth of H. pylori (89-357, oxethazaine 0 + CAM 0.1 μg/ml): − | growth of H. pylori (89-357, oxethazaine 0 + CAM 0.2 μg/ml): − | growth of H. pylori (89-357, oxethazaine 0 + CAM 0.4 μg/ml): − | growth of H. pylori (89-357, oxethazaine 0 + CAM 0.8 μg/ml): − | growth of H. pylori (89-357, oxethazaine 0 + CAM 1.56 μg/ml): − | growth of H. pylori (89-357, oxethazaine 0 + CAM 3.13 μg/ml): − | growth of H. pylori (89-357, oxethazaine 0 + CAM 6.25 μg/ml): − | growth of H. pylori (89-357, oxethazaine 0 + CAM 12.5 μg/ml): − | growth of H. pylori (89-357, oxethazaine 0 + CAM 25 μg/ml): − | growth of H. pylori (89-357, oxethazaine 0 + CAM 50 μg/ml): − | growth of H. pylori (89-357, oxethazaine 0 + CAM 100 μg/ml): − | growth of H. pylori (90-388, oxethazaine 0 + CAM 0.006 μg/ml): + | growth of H. pylori (90-388, oxethazaine 0 + CAM 0.012 μg/ml): + | growth of H. pylori (90-388, oxethazaine 0 + CAM 0.024 μg/ml): + | growth of H. pylori (90-388, oxethazaine 0 + CAM 0.05 μg/ml): + | growth of H. pylori (90-388, oxethazaine 0 + CAM 0.1 μg/ml): − | growth of H. pylori (90-388, oxethazaine 0 + CAM 0.2 μg/ml): − | growth of H. pylori (90-388, oxethazaine 0 + CAM 0.4 μg/ml): − | growth of H. pylori (90-388, oxethazaine 0 + CAM 0.8 μg/ml): − | growth of H. pylori (90-388, oxethazaine 0 + CAM 1.56 μg/ml): − | growth of H. pylori (90-388, oxethazaine 0 + CAM 3.13 μg/ml): − | growth of H. pylori (90-388, oxethazaine 0 + CAM 6.25 μg/ml): − | growth of H. pylori (90-388, oxethazaine 0 + CAM 12.5 μg/ml): − | growth of H. pylori (90-388, oxethazaine 0 + CAM 25 μg/ml): − | growth of H. pylori (90-388, oxethazaine 0 + CAM 50 μg/ml): − | growth of H. pylori (90-388, oxethazaine 0 + CAM 100 μg/ml): − | growth of H. pylori (90-390, oxethazaine 0 + CAM 0.006 μg/ml): + | growth of H. pylori (90-390, oxethazaine 0 + CAM 0.012 μg/ml): + | growth of H. pylori (90-390, oxethazaine 0 + CAM 0.024 μg/ml): + | growth of H. pylori (90-390, oxethazaine 0 + CAM 0.05 μg/ml): + | growth of H. pylori (90-390, oxethazaine 0 + CAM 0.1 μg/ml): − | growth of H. pylori (90-390, oxethazaine 0 + CAM 0.2 μg/ml): − | growth of H. pylori (90-390, oxethazaine 0 + CAM 0.4 μg/ml): − | growth of H. pylori (90-390, oxethazaine 0 + CAM 0.8 μg/ml): − | growth of H. pylori (90-390, oxethazaine 0 + CAM 1.56 μg/ml): − | growth of H. pylori (90-390, oxethazaine 0 + CAM 3.13 μg/ml): − | growth of H. pylori (90-390, oxethazaine 0 + CAM 6.25 μg/ml): − | growth of H. pylori (90-390, oxethazaine 0 + CAM 12.5 μg/ml): − | growth of H. pylori (90-390, oxethazaine 0 + CAM 25 μg/ml): − | growth of H. pylori (90-390, oxethazaine 0 + CAM 50 μg/ml): − | growth of H. pylori (90-390, oxethazaine 0 + CAM 100 μg/ml): − | growth of H. pylori (EH 12, oxethazaine 0 + CAM 0.006 μg/ml): + | growth of H. pylori (EH 12, oxethazaine 0 + CAM 0.012 μg/ml): + | growth of H. pylori (EH 12, oxethazaine 0 + CAM 0.024 μg/ml): + | growth of H. pylori (EH 12, oxethazaine 0 + CAM 0.05 μg/ml): − | growth of H. pylori (EH 12, oxethazaine 0 + CAM 0.1 μg/ml): − | growth of H. pylori (EH 12, oxethazaine 0 + CAM 0.2 μg/ml): − | growth of H. pylori (EH 12, oxethazaine 0 + CAM 0.4 μg/ml): − | growth of H. pylori (EH 12, oxethazaine 0 + CAM 0.8 μg/ml): − | growth of H. pylori (EH 12, oxethazaine 0 + CAM 1.56 μg/ml): − | growth of H. pylori (EH 12, oxethazaine 0 + CAM 3.13 μg/ml): − | growth of H. pylori (EH 12, oxethazaine 0 + CAM 6.25 μg/ml): − | growth of H. pylori (EH 12, oxethazaine 0 + CAM 12.5 μg/ml): − | growth of H. pylori (EH 12, oxethazaine 0 + CAM 25 μg/ml): − | growth of H. pylori (EH 12, oxethazaine 0 + CAM 50 μg/ml): − | growth of H. pylori (EH 12, oxethazaine 0 + CAM 100 μg/ml): − | growth of H. pylori (EH 13, oxethazaine 0 + CAM 0.006 μg/ml): + | growth of H. pylori (EH 13, oxethazaine 0 + CAM 0.012 μg/ml): + | growth of H. pylori (EH 13, oxethazaine 0 + CAM 0.024 μg/ml): − | growth of H. pylori (EH 13, oxethazaine 0 + CAM 0.05 μg/ml): − | growth of H. pylori (EH 13, oxethazaine 0 + CAM 0.1 μg/ml): − | growth of H. pylori (EH 13, oxethazaine 0 + CAM 0.2 μg/ml): − | growth of H. pylori (EH 13, oxethazaine 0 + CAM 0.4 μg/ml): − | growth of H. pylori (EH 13, oxethazaine 0 + CAM 0.8 μg/ml): − | growth of H. pylori (EH 13, oxethazaine 0 + CAM 1.56 μg/ml): − | growth of H. pylori (EH 13, oxethazaine 0 + CAM 3.13 μg/ml): − | growth of H. pylori (EH 13, oxethazaine 0 + CAM 6.25 μg/ml): − | growth of H. pylori (EH 13, oxethazaine 0 + CAM 12.5 μg/ml): − | growth of H. pylori (EH 13, oxethazaine 0 + CAM 25 μg/ml): − | growth of H. pylori (EH 13, oxethazaine 0 + CAM 50 μg/ml): − | growth of H. pylori (EH 13, oxethazaine 0 + CAM 100 μg/ml): − | additive effect, number of strains [1]: 17 strains/ | synergism, number of strains [1]: 5 strains/ | growth of H. pylori (strain 90-397, CAM 0.006 μg/ml, oxethazaine μg/ml: 100, 50, 25, 12.5, 6.25, 3.13, 0): + | growth of H. pylori (strain 90-397, CAM 0.012 μg/ml, oxethazaine μg/ml: 100, 50, 25, 12.5, 6.25, 3.13, 0): + | growth of H. pylori (strain 90-397, CAM 0.024 μg/ml, oxethazaine μg/ml: 100, 50, 25, 12.5, 6.25, 3.13, 0): + | growth of H. pylori (strain 90-397, CAM 0.05 μg/ml, oxethazaine μg/ml: 100, 50, 25, 12.5, 6.25, 3.13, 0): + | growth of H. pylori (strain 90-397, CAM 0.1 μg/ml, oxethazaine μg/ml: 100, 50, 25, 12.5, 6.25, 3.13, 0): + | growth of H. pylori (strain 90-397, CAM 0.2 μg/ml, oxethazaine μg/ml: 100, 50, 25, 12.5, 6.25, 3.13, 0): + | growth of H. pylori (strain 90-397, CAM 12.5 μg/ml, oxethazaine μg/ml: 100, 50, 25, 12.5, 6.25, 3.13, 0): − | growth of H. pylori (strain 90-397, CAM 25 μg/ml, oxethazaine μg/ml: 100, 50, 25, 12.5, 6.25, 3.13, 0): − | growth of H. pylori (strain 90-397, CAM 50 μg/ml, oxethazaine μg/ml: 100, 50, 25, 12.5, 6.25, 3.13, 0): − | growth of H. pylori (strain 90-397, CAM 100 μg/ml, oxethazaine μg/ml: 100, 50, 25, 12.5, 6.25, 3.13, 0): −
